The record followed here is patent US7977372B2, “Ortho aminoamides for the treatment of cancer” (Hoffmann-La Roche Inc., priority 2009, dated 2011).

As a reminder, the GI50 is the concentration giving 50% growth inhibition. A low value points to greater sensitivity of the cells.

Structures are written as SMILES.

The test system of assay [1] is histone deacetylase (HeLa nuclear extract). In words: HeLa extract HDAC fluorometric assay. It is filed as biochemical. As to conditions: compound at 30 micromolar; relative to SNDX-275. How it is done: Novel compounds were tested for their ability to inhibit histone deacetylase using an in vitro deacetylation assay. The enzyme source for this assay was HeLa nuclear extract. The substrate consisted of a commercial product containing an acetylated lysine side chain (both HeLa extract and substrate are available commercially from BIOMOL Research Laboratories, Inc., Plymouth Meeting, Pa.). After deacetylation of the substrate by incubation with HeLa nuclear extract, subsequent exposure to a developing reagent produces a fluorophore that is directly proportional to the level of deacetylation. Using the substrate concentration at the Km for the HeLa nuclear extract, the deacetylation assay was performed in the presence of novel compounds at 30 micromolar and the percent enzyme inhibition relative to a known reference HDAC inhibitor (SNDX-275) was determined. […] Inhibitory activity for specific representative compounds can be found in Table 19.

Assay [2] has as its system SMMC-7721 liver cancer cells. The experiment in a line: Growth inhibition of cancer cell lines (MTS / WST assay), SMMC-7721. Particulars: Homo sapiens, SMMC-7721, 72 h; for IC90: read-out: SMMC GI90. Format: cell-based. Here is the method: (§1) The novel compounds of the present invention were tested for their ability to inhibit growth of various cancer cell lines using in vitro growth inhibition assays described below.
(§2) Cells were seeded in 96-well culture plates (200 microliters/well at different seeding concentrations depending on cell type) and incubated overnight at 37 degrees Celsius in 5% CO2. After adding compound dilutions to the cells (DMSO concentration kept below 0.5%), the cells were incubated at 37 degrees Celsius in 5% CO2 for 72 hours. The effects on proliferation were determined by addition of MTS reagent (Promega) according to the manufacturer's instruction, followed by incubation for 2 hours at 37 degrees Celsius in 5% CO2, and finally recording the absorbance at 490 nm using an ELISA plate reader.
(§3) Similar to MTS assay except that the developer is the CCK-8 reagent (Dojindo) and the plate reader is set to 450 nm absorbance.
(§4) GI50 and GI90 values against SGC-7901 gastric cancer cells and SMMC-7721 liver cancer cells for specific representative compounds can be found in Table 19.

The test system of assay [3] is SGC-7901 gastric cancer cells. In words: Growth inhibition of cancer cell lines (MTS / WST assay), SGC-7901. As to conditions: Homo sapiens, SGC-7901, 72 h; for IC90: read-out: SGC GI90. It is filed as cell-based. How it is done:
as §1, §2, §3, §4

In the case of `CC(C)(CO)N1CC(C(=O)Nc2ccc(Cl)cc2)C(c2ccc(/C=C/C(=O)Nc3ccccc3N)cc2)C1` (racemic) [Example 26, rac-(trans-3,4)-4-{4-[2-(2-Amino-phenylcarbamoyl)-vinyl]-phenyl}-1-(2-hydroxy-1,1-dimethyl-ethyl)-pyrrolidine-3-carboxylic acid (4-chloro-phenyl)-amide], the “HD RP30 (relative inhibitory potency compared with SNDX-275)” value in assay [1] turned out to be 1.38. The figures for the GI50 in assay [2] and in assay [3] were 640 nM and 290 nM, respectively. Further, the IC90 in assay [2] was 1530 nM; in assay [3] it was 1040 nM.

For the compound `CC(C)(C)N1CC(C(=O)Nc2ccc(Cl)cc2)C(c2ccc(/C=C/C(=O)Nc3ccccc3N)cc2)C1` (racemic) [Example 36, rac-(trans-3,4)-4-{4-[2-(2-Amino-phenylcarbamoyl)-vinyl]-phenyl}-1-tert-butyl-pyrrolidine-3-carboxylic acid (4-chloro-phenyl)-amide], the “HD RP30 (relative inhibitory potency compared with SNDX-275)” value in assay [1] came to 1.75. Moreover, in assay [2], the concentration for 50% growth inhibition (GI50) amounted to 960 nM and the IC90 turned out to be 3290 nM. For the same compound, in assay [3], the GI50 was 490 nM and the IC90 was 1530 nM.

Turning to `CCN1CC(C(=O)Nc2ccc(Cl)cc2)C(c2ccc(/C=C/C(=O)Nc3ccccc3N)cc2)C1` (stereo not drawn) [Example 21-6], in assay [1], the “HD RP30 (relative inhibitory potency compared with SNDX-275)” value stood at 1.48. In addition, in assay [2], halving of growth (GI50) required 800 nM and the IC90 was 2520 nM. In assay [3], growth was halved (GI50) at 400 nM and the IC90 was 1210 nM.

`COCCN1CC(C(=O)Nc2ccc(Cl)cc2)C(c2ccc(/C=C/C(=O)Nc3ccccc3N)cc2)C1` (stereo not drawn) [Example 21-15]: in assay [1], the “HD RP30 (relative inhibitory potency compared with SNDX-275)” value came out at 1.47. Further, in assay [2], halving of growth (GI50) required 1340 nM and the IC90 was 3320 nM. For the same compound, in assay [3], it took 600 nM to inhibit growth by half (GI50) and the IC90 was found to be 2950 nM.

`CC(C)N1CC(C(=O)Nc2ccc(Cl)cc2)C(c2ccc(/C=C/C(=O)Nc3ccccc3N)cc2)C1` (stereo not drawn) [Example 16-17]: the “HD RP30 (relative inhibitory potency compared with SNDX-275)” value in assay [1] was determined as 1.53. Also, in assay [2], halving of growth (GI50) required 900 nM and the IC90 is 2450 nM. In assay [3], growth was halved (GI50) at 440 nM and the IC90 was 1890 nM.

For the compound `CN1CC(C(=O)Nc2ccccc2)C(c2ccc(/C=C/C(=O)Nc3ccccc3N)cc2)C1` (stereo not drawn) [Example 5-32], the “HD RP30 (relative inhibitory potency compared with SNDX-275)” value in assay [1] is 1.58. Further, in assay [2], the GI50 stood at 710 nM and the IC90 turned out to be 2420 nM. For the same compound, in assay [3], the 50% growth inhibitory concentration (GI50) was 410 nM and the IC90 turned out to be 2040 nM.

Consider `CC(C)N1CC(C(=O)Nc2ccc(Br)cc2)C(c2ccc(/C=C/C(=O)Nc3ccccc3N)cc2)C1` (stereo not drawn) [Example 16-16], for which, in assay [1], the “HD RP30 (relative inhibitory potency compared with SNDX-275)” value is on record as 2.03. Further, in assay [2], the 50% growth inhibitory concentration (GI50) was 700 nM and the IC90 is 1620 nM. In addition, in assay [3], the 50% growth inhibitory concentration (GI50) came out at 340 nM and the IC90 is 890 nM.

On to `CN1CC(C(=O)Nc2ccc(F)cc2)C(c2ccc(/C=C/C(=O)Nc3ccccc3N)cc2F)C1` (stereo not drawn) [Example 85-4], for which, in assay [1], the “HD RP30 (relative inhibitory potency compared with SNDX-275)” value is 1.84. The concentration for 50% growth inhibition (GI50) turned out to be 1200 nM in assay [2] and 470 nM in assay [3]. For the same compound, the IC90 in assay [2] was 3400 nM; in assay [3], 2400 nM.

Regarding `CC(C)N1CC(C(=O)Nc2ccc(F)cc2)C(c2ccc(/C=C/C(=O)Nc3ccccc3N)cc2)C1` (stereo not drawn) [Example 16-15], the “HD RP30 (relative inhibitory potency compared with SNDX-275)” value in assay [1] turned out to be 1.51. In assay [2], the concentration for 50% growth inhibition (GI50) is 720 nM and the IC90 was 2020 nM. Besides, in assay [3], the GI50 was found to be 290 nM and the IC90 turned out to be 1240 nM.

Consider `Cc1cc(NC(=O)C2CN(C)CC2c2ccc(/C=C/C(=O)Nc3ccccc3N)cc2)ccc1F` (stereo not drawn) [Example 5-27], for which the “HD RP30 (relative inhibitory potency compared with SNDX-275)” value in assay [1] is 1.61. Moreover, in assay [2], the GI50 is 570 nM and the IC90 came out at 1600 nM. Also, in assay [3], the concentration for 50% growth inhibition (GI50) is 280 nM and the IC90 was determined as 1120 nM.

Take `CN1CC(c2ccc(/C=C/C(=O)Nc3ccccc3N)cc2)C(c2nc3cc(Cl)ccc3[nH]2)C1` (stereo not drawn) [Example 11-4]: the “HD RP30 (relative inhibitory potency compared with SNDX-275)” value in assay [1] was 1.70. The figures for the 50% growth inhibitory concentration (GI50) in assay [2] and in assay [3] were 640 nM and 370 nM, respectively. In addition, the IC90 came to 1810 nM in assay [2] and 1710 nM in assay [3].

With `CN1C[C@@H](C(=O)Nc2ccc(F)cc2)[C@H](c2ccc(/C=C/C(=O)Nc3ccccc3N)cc2)C1` [Example 5-8], the “HD RP30 (relative inhibitory potency compared with SNDX-275)” value in assay [1] was 1.95. The values for the GI50 in assay [2] and in assay [3] were 780 nM and 310 nM, respectively. Also, the IC90 in assay [2] was 3960 nM; in assay [3] it was 1140 nM.
